Data taken from paper PMC4532832, “GABA signalling modulates plant growth by directly regulating the activity of plant-specific anion transporters” (Nature Communications, 2015).
Positions count from the first letter of the chain named. pEC50: −log10 of the molar value. Like-named read-outs stand apart in the source and are kept apart here. Blank lines part the entries; values can stand above or below the compound they belong to.

Columns and labels:
Assay type in all cases: cell-based
[1] = biological target: T1, VvALMT9 (Vitis vinifera, UniProt F6GTK1); assay: two-electrode voltage clamp, X. laevis oocytes; settings: read-out: half-maximal effective concentration
T1 construct: gene VIT_17s0000g03850; full-length, untagged as told; cRNA from pGEMHE-DEST in Xenopus laevis oocytes
T1 sequence (F6GTK1 1-588): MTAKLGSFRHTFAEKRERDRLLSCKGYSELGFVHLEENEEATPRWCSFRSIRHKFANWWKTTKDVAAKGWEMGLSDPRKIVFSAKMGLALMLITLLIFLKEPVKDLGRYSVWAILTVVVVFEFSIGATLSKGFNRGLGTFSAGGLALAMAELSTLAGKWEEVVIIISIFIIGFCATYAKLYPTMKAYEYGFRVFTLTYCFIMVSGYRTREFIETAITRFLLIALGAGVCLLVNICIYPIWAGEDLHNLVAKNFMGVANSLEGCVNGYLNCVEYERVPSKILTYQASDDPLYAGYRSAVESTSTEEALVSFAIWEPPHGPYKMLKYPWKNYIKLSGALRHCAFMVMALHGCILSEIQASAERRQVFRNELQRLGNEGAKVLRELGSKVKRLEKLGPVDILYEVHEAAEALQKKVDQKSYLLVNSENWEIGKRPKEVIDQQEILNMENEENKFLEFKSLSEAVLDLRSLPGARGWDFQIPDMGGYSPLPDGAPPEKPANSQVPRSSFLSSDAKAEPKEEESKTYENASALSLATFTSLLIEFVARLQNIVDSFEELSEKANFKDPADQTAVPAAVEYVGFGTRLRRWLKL

[2] = biological target: T2, TaALMT1 (Triticum aestivum, UniProt Q76LB1); assay: two-electrode voltage clamp, X. laevis oocytes
T2 construct: gene ALMT1; full-length, untagged as told; cRNA from pGEMHE-DEST in Xenopus laevis oocytes; BY2 tobacco line for flux
T2 sequence (Q76LB1 1-459): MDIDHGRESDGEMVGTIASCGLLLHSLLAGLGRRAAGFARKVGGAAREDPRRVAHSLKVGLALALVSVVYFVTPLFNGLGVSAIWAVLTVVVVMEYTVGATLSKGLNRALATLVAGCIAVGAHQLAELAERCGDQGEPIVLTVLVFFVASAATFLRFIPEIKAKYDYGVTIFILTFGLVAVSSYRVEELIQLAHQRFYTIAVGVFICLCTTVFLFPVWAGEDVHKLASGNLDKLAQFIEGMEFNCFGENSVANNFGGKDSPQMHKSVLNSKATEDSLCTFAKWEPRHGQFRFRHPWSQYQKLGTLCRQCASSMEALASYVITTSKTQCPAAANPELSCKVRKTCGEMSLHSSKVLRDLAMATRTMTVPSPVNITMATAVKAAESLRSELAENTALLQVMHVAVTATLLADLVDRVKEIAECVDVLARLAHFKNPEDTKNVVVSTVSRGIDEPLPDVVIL

[3] = biological target: T3, TaALMT1 (Triticum aestivum, UniProt Q76LB1, F215C); assay: two-electrode voltage clamp, X. laevis oocytes; settings: 10 mM malate-activated current, 100 μM GABA
T3 construct: gene ALMT1; full-length, untagged as told; cRNA from pGEMHE-DEST in Xenopus laevis oocytes; BY2 tobacco line for flux
T3 sequence (Q76LB1 1-459 F215C): T2 sequence (Q76LB1 1-459) with F215C

[4] = biological target: T4, TaALMT1 (Triticum aestivum, UniProt Q76LB1, F213C/F215C); assay: two-electrode voltage clamp, X. laevis oocytes; settings: read-out: half-maximal effective concentration
T4 construct: gene ALMT1; full-length, untagged as told; cRNA from pGEMHE-DEST in Xenopus laevis oocytes; BY2 tobacco line for flux
T4 sequence (Q76LB1 1-459 F213C/F215C): T2 sequence (Q76LB1 1-459) with F213C, F215C

[5] = biological target: T5, VvALMT9 (Vitis vinifera, UniProt F6GTK1, Y237C); assay: two-electrode voltage clamp, X. laevis oocytes; settings: read-out: half-maximal effective concentration
T5 construct: gene VIT_17s0000g03850; full-length, untagged as told; cRNA from pGEMHE-DEST in Xenopus laevis oocytes
T5 sequence (F6GTK1 entry or part of it Y237C): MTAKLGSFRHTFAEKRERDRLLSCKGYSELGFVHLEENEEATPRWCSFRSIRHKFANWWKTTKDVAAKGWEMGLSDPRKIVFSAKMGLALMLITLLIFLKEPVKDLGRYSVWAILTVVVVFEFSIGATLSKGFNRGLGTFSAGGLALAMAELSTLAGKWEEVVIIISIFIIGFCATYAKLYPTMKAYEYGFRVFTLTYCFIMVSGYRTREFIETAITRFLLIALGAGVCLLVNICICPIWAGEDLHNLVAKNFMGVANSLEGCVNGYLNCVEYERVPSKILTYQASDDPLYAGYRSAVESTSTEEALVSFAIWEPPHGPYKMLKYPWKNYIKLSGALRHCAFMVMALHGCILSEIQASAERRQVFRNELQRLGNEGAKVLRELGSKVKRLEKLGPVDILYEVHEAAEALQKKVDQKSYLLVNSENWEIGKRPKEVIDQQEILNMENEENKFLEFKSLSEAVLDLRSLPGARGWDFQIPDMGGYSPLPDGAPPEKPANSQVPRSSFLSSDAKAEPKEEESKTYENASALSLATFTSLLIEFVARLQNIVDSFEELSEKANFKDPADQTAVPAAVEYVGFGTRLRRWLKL

[6] = biological target: T2, TaALMT1; assay: two-electrode voltage clamp in oocytes; malate efflux from TaALMT1-expressing BY2 cells; settings: 100 μM bicuculline against muscimol or GABA; competitive antagonist

- pEC50 [1]: 5.30
- pEC50 ([2]; read-out: half-maximal effective concentration): 5.49
- pEC50 [4]: < 3.00
- pEC50 [5]: 3.16
SMILES: NCCCC(=O)O [GABA]
- inhibition at 100 μM [3]: whereas inward current through TaALMT1^F215C was reduced by GABA

SMILES: CN1CCc2cc3c(cc2[C@H]1[C@@H]1OC(=O)c2c1ccc1c2OCO1)OCO3 [bicuculline]
- two-electrode voltage clamp in oocytes; malate efflux from TaALMT1-expressing BY [6]: bicuculline appears to act as a competitive antagonist to GABA action for TaALMT1

SMILES: NCc1cc(=O)[nH]o1 [muscimol]
- pEC50 [2]: 5.26
